# Data taken from patent US9695155B2, “Herbicidal substituted pyrimidinyloxy benzene compounds” (E. I. DU PONT DE NEMOURS AND COMPANY, priority 2013, dated 2017).
# Assays:
# [1] = test system: morningglory; assay: Test A postemergence; type: in vivo, Ipomoea spp.
# Outline: (§1)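 Injury scores run from 0, no effect, to 100, complete control, judged by eye against untreated plants roughly 10 days after treatment. Chemicals carried a surfactant in a non-phytotoxic solvent and went onto loam–sand soil preemergence or onto one- to two-leaf seedlings postemergence.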
# [2] = test system: Heteranthera limosa; assay: Test B flooded paddy test; type: in vivo; conditions: Flood, 250 g ai/ha; 0 to 100 scale where 0 is no effect and 100 is complete control
# Outline: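 Plants were grown to the 2-leaf stage, then pots were flooded to 3 cm above the soil and compounds were applied directly into the paddy water. That depth was held throughout, and after 13 to 15 days in the greenhouse injury was rated visually against controls on a 0–100 scale (0 no effect, 100 complete control).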
# [3] = test system: giant foxtail; assay: Test A postemergence; type: in vivo, Setaria faberii
# Outline: as §1
# [4] = test system: lambsquarters; assay: Test C preemergence; type: in vivo, Chenopodium album; conditions: for Lambsquarters plant response rating: preemergence, scale 0 (no effect) to 100 (complete control)
# Outline: (§2)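 Preemergence: seeds sown in a loam soil–sand blend and sprayed with test chemical in a non-phytotoxic solvent mixture containing surfactant. Postemergence: plants at 2 to 18 cm (1- to 4-leaf stage) in peat-based medium, treated with the same formulation. Greenhouse 13 to 15 days, then visual rating 0 (no effect) to 100 (complete control).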
# [5] = test system: Italian ryegrass; assay: Test C postemergence; type: in vivo, Lolium multiflorum; conditions: for Plant response rating (0 to 100), Ryegrass, Italian: postemergence; for Plant response rating, Ryegrass, Italian: Postemergence, scale 0 to 100 (0 no effect, 100 complete control)
# Outline: as §2
# [6] = test system: barnyardgrass; assay: Test A postemergence; type: in vivo, Echinochloa crus-galli
# Outline: as §1
# [7] = test system: Italian ryegrass; assay: Test C preemergence; type: in vivo, Lolium multiflorum; conditions: for Ryegrass, Italian plant response rating: preemergence, scale 0 (no effect) to 100 (complete control)
# Outline: as §2
# [8] = test system: blackgrass; assay: Test C preemergence; type: in vivo, Alopecurus myosuroides; conditions: for Blackgrass plant response rating: preemergence, scale 0 (no effect) to 100 (complete control)
# Outline: as §2
# [9] = test system: wheat, winter; assay: Test C preemergence; type: in vivo, Triticum aestivum; conditions: for Wheat plant response rating: preemergence, scale 0 (no effect) to 100 (complete control)
# Outline: as §2
# [10] = test system: pigweed; assay: Test A postemergence; type: in vivo, Amaranthus retroflexus
# Outline: as §1
# [11] = test system: soybean; assay: Test C postemergence; type: in vivo, Glycine max; conditions: for Plant response rating (0 to 100), Soybean: postemergence; for Plant response rating, Soybean: Postemergence, scale 0 to 100 (0 no effect, 100 complete control)
# Outline: as §2
# [12] = test system: giant foxtail; assay: Test A preemergence; type: in vivo, Setaria faberii
# Outline: as §1
# [13] = test system: johnsongrass; assay: Test C postemergence; type: in vivo, Sorghum halepense; conditions: for Plant response rating (0 to 100), Johnsongrass: postemergence; for Plant response rating, Johnsongrass: Postemergence, scale 0 to 100 (0 no effect, 100 complete control)
# Outline: as §2
# [14] = test system: velvetleaf; assay: Test C preemergence; type: in vivo, Abutilon theophrasti; conditions: for Velvetleaf plant response rating: preemergence, scale 0 (no effect) to 100 (complete control)
# Outline: as §2
# [15] = 125 g ai/ha, 0 to 100 scale where 0 is no effect and 100 is complete control
# [16] = 500 g ai/ha, 0 to 100 scale, 0 no effect, 100 complete control
# [17] = Preemergence, 31 g ai/ha, scale 0 to 100, 0 no effect, 100 complete control
smiles,measurement,setting,value
FC(F)(F)c1cnn(-c2ccccc2Oc2ncc(Cl)cn2)c1 [Compound 16],"Plant response rating, Morningglory",[1]; [15],90
same,"Plant response rating, Morningglory",[1]; [16],100
same,"Plant response rating, Ducksalad",[2],90
same,"Plant response rating, Foxtail, Giant",[3]; [15],100
same,"Plant response rating, Foxtail, Giant",[3]; [16],100
same,Lambsquarters plant response rating,[4]; 62 g ai/ha,80
same,Lambsquarters plant response rating,[4]; 125 g ai/ha,80
same,Lambsquarters plant response rating,[4]; 250 g ai/ha,90
same,"Plant response rating, Lambsquarters",[4]; [17],20
same,"Plant response rating (0 to 100), Ryegrass, Italian",[5]; 125 g ai/ha,20
same,"Plant response rating (0 to 100), Ryegrass, Italian",[5]; 250 g ai/ha,20
same,"Plant response rating, Ryegrass, Italian","[5]; 31 g ai/ha, 13 to 15 days",10
same,"Plant response rating, Ryegrass, Italian",[5]; 62 g ai/ha,15
same,"Plant response rating, Barnyardgrass",[6]; [15],60
same,"Plant response rating, Barnyardgrass",[6]; [16],100
same,"Ryegrass, Italian plant response rating",[7]; 62 g ai/ha,30
same,"Ryegrass, Italian plant response rating",[7]; 125 g ai/ha,80
same,"Ryegrass, Italian plant response rating",[7]; 250 g ai/ha,90
same,"Plant response rating, Ryegrass, Italian",[7]; [17],0
same,Blackgrass plant response rating,[8]; 62 g ai/ha,90
same,Blackgrass plant response rating,[8]; 125 g ai/ha,90
same,Blackgrass plant response rating,[8]; 250 g ai/ha,90
same,"Plant response rating, Blackgrass",[8]; [17],85
same,Wheat plant response rating,[9]; 62 g ai/ha,0
same,Wheat plant response rating,[9]; 125 g ai/ha,35
same,Wheat plant response rating,[9]; 250 g ai/ha,60
same,"Plant response rating, Wheat",[9]; [17],0
same,"Plant response rating, Pigweed",[10]; [15],100
same,"Plant response rating, Pigweed",[10]; [16],100
same,"Plant response rating (0 to 100), Soybean",[11]; 125 g ai/ha,90
same,"Plant response rating (0 to 100), Soybean",[11]; 250 g ai/ha,90
same,"Plant response rating, Soybean","[11]; 31 g ai/ha, 13 to 15 days",75
same,"Plant response rating, Soybean",[11]; 62 g ai/ha,85
same,"Foxtail, Giant plant response rating",[12]; [15],100
same,"Foxtail, Giant plant response rating","[12]; 500 g ai/ha, 0 to 100 scale, 0 no effect, 100 complete control, approx. 10 days",100
same,"Plant response rating (0 to 100), Johnsongrass",[13]; 125 g ai/ha,10
same,"Plant response rating (0 to 100), Johnsongrass",[13]; 250 g ai/ha,10
same,"Plant response rating, Johnsongrass","[13]; 31 g ai/ha, 13 to 15 days",0
same,"Plant response rating, Johnsongrass",[13]; 62 g ai/ha,5
same,Velvetleaf plant response rating,[14]; 62 g ai/ha,100
same,Velvetleaf plant response rating,[14]; 125 g ai/ha,100
same,Velvetleaf plant response rating,[14]; 250 g ai/ha,100
same,"Plant response rating, Velvetleaf",[14]; [17],98
